Source: patent publication US12428413B2 (CHDI Foundation, Inc., priority 2019, dated 2025)
Counter-ions that a name gives are not always drawn.

Columns and labels:
[1] = test system: cellular ROCK activity (cofilin phosphorylation at Ser3) in A7r5 rat smooth muscle cells; assay: Cellular ROCK activity: cofilin (Ser3) phosphorylation, In-Cell Western assay; assay type: cell-based; settings: Rattus norvegicus, A7R5, 1 h, 1 hour compound incubation, phospho-cofilin (Ser3), read-out: CELL_IC50
Description: The potency of Rho-associated protein kinase (ROCK) inhibitors was quantified by measuring cofilin phosphorylation levels at Serine 3 (Ser3) as a measure of cellular ROCK activity by In-Cell Western assay. […] The assay plate was imaged and quantified on the Odyssey imager (LICOR Biosciences).
ROCK inhibitor compound plate preparation. […] Stock compounds and control are added directly to ECHO plate (Labcyte) by Janus.
A7r5 cell culture and plating. A7r5 cells were cultured according to standard cell culture protocols in A7r5 growth media (DMEM with Glutamax and 10% FBS). […] 45 μl of re-suspended A7r5 cells were plated at 3000 cells/well in a sterile, μclear, black, F-bottom, 384-well microplate (Greiner bio-one). Seeded cells allowed to settle in wells on the bench for 1 hour before incubation at 37° C., 5% CO2 overnight.
Assay reagent and antibody preparations. Wash buffer was prepared by addition of Tween-20 to Dulbecco's Phosphate Buffered Saline (DPBS) (1×) without calcium and magnesium to make 1% Tween-20 as final concentration. Blocking buffer was prepared by addition of TritonX-100 to SeaBlock buffer (ThermoFisher) to make 0.3% TritonX-100 as final concentration. […] Secondary antibody mix was prepared by diluting donkey anti-rabbit 800CW antibody (LICOR Biosciences) 1:1000 in SeaBlock buffer.
Assay procedure. Compound plate was diluted by addition of 19 μl/well compound dilution buffer (DMEM with Glutamax) using 125 μl 16-channel Matrix electronic pipette. 5 μl diluted compound was stamped from compound plate to assay plate containing A7r5 cells using Bravo (384-well head from Agilent) liquid handler and incubated at 37° C., 5% CO2 for 1 hour. Cells were fixed by addition of 5 μl 37% formaldehyde using 125 μl 16-channel Matrix electronic pipette and incubation for 20 min at room temperature. The assay plate was washed 5× with 60 μl/well wash buffer. […] Next, the assay plate was sealed, centrifuged at 1000 rpm for 5 seconds and incubated at 4° C. overnight on an orbital shaker at 300 rpm. […] The assay plate was centrifuged at 1000 rpm for 5 seconds and incubated on an orbital shaker at 300 rpm for 60 min at room temperature. Finally, assay plate was washed and wells left empty before measurement of 700 nm and 800 nm fluorescence intensities on Odyssey imager set at 4.0 mm focus offset.

[2] = target: human catalytic domain ROCK II protein (amino acids 5-554) with a N-terminal GST tag (Homo sapiens, UniProt O75116); assay: biochemical
human catalytic domain ROCK II protein (amino acids 5-554) with a N-terminal GST tag, sequence (O75116 5-554): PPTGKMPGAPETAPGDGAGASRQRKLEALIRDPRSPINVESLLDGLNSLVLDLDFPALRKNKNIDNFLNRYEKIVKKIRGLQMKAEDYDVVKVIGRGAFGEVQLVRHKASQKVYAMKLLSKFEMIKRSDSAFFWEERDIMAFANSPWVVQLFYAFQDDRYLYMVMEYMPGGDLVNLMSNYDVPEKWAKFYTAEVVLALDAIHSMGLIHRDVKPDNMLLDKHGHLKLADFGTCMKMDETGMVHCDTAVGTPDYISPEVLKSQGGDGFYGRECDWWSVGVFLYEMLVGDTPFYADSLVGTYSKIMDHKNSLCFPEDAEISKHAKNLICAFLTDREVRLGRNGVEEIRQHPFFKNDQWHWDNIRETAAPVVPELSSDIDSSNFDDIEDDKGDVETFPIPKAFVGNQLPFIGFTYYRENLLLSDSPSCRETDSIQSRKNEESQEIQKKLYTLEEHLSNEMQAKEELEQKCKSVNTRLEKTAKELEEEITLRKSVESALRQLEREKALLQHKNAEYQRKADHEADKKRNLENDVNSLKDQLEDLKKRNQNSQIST

Structure (SMILES) | IC50 [1] | IC50 [2]
C[C@@H](NC(=O)N1CCN(c2ccncc2F)CC1)c1cccc2c1OC(F)(F)O2 [Example 36, (R)—N-(1-(2,2-Difluorobenzo[d][1,3]dioxol-4-yl)ethyl)-4-(3-fluoropyridin-4-yl)piperazine-1-carboxamide] | 1.44 µM | 0.0881 µM
O=C(NCc1cccc2ncoc12)N1CCN(c2ccncc2F)CC1 [Example 39, N-(Benzo[d]oxazol-7-ylmethyl)-4-(3-fluoropyridin-4-yl)piperazine-1-carboxamide] | 0.559 µM | 0.0546 µM
COc1cccc([C@@H](C)NC(=O)N2CCN(c3ccncc3F)C[C@H]2C)c1 [Example 43, (R)-4-(3-Fluoropyridin-4-yl)-N—((R)-1-(3-methoxyphenyl)ethyl)-2-methylpiperazine-1-carboxamide] | 0.0075 µM | 0.0029 µM
COc1cccc([C@@H](C)OC(=O)N2CCN(c3ccncc3F)C[C@H]2C)c1 [Example 46, (R)-1-(3-Methoxyphenyl)ethyl (R)-4-(3-fluoropyridin-4-yl)-2-methylpiperazine-1-carboxylate] | 0.295 µM | 0.0039 µM
C[C@@H]1CN(c2ccncc2F)CCN1C(=O)N[C@H](C)c1ccc(F)cc1Cl [Example 50, (R)—N—((R)-1-(2-Chloro-4-fluorophenyl)ethyl)-4-(3-fluoropyridin-4-yl)-2-methylpiperazine-1-carboxamide] | 0.184 µM | 0.0078 µM
COc1cc([C@@H](C)NC(=O)N2CCN(c3ccncc3F)C[C@H]2C)ccc1F [Example 53, (R)—N—((R)-1-(4-Fluoro-3-methoxyphenyl)ethyl)-4-(3-fluoropyridin-4-yl)-2-methylpiperazine-1-carboxamide] | 0.0333 µM | 0.0035 µM
C[C@@H]1CN(c2ccncc2F)CCN1C(=O)NCc1ccccc1Cl [Example 54, (R)—N-(2-Chlorobenzyl)-4-(3-fluoropyridin-4-yl)-2-methylpiperazine-1-carboxamide] | 0.144 µM | 0.013 µM
COc1ccc(F)c(CNC(=O)N2CCN(c3ccncc3F)C[C@H]2C)c1 [Example 55, (R)—N-(2-Fluoro-5-methoxybenzyl)-4-(3-fluoropyridin-4-yl)-2-methylpiperazine-1-carboxamide] | 0.602 µM | 0.0233 µM
COc1ncccc1CNC(=O)N1CCN(c2ccncc2F)C[C@H]1C [Example 56, (R)-4-(3-Fluoropyridin-4-yl)-N-((2-methoxypyridin-3-yl)methyl)-2-methylpiperazine-1-carboxamide] | 3.05 µM | 0.36 µM
C[C@@H]1CN(c2ccncc2F)CCN1C(=O)N[C@H](C)c1cccc2c1CC(C)(C)O2 [Example 57, (R)—N—((R)-1-(2,2-Dimethyl-2,3-dihydrobenzofuran-4-yl)ethyl)-4-(3-fluoropyridin-4-yl)-2-methylpiperazine-1-carboxamide] | 0.0391 µM | 0.005 µM
C[C@@H]1CN(c2ccncc2F)CCN1C(=O)N[C@H](C)c1cccn2nccc12 [Example 61, (R)-4-(3-Fluoropyridin-4-yl)-2-methyl-N—((R)-1-(pyrazolo[1,5-a]pyridin-4-yl)ethyl)piperazine-1-carboxamide] | 0.0138 µM | 0.0024 µM
C[C@H](NC(=O)N1CCN(c2ccncc2F)C[C@H]1C)c1cccn2nccc12 [Example 62, (R)-4-(3-Fluoropyridin-4-yl)-2-methyl-N—((S)-1-(pyrazolo[1,5-a]pyridin-4-yl)ethyl)piperazine-1-carboxamide] | 0.49 µM | 0.108 µM
Cc1cnc2cccc([C@@H](C)NC(=O)N3CCN(c4ccncc4F)C[C@H]3C)n12 [Example 65, (R)-4-(3-Fluoropyridin-4-yl)-2-methyl-N—((R)-1-(3-methylimidazo[1,2-a]pyridin-5-yl)ethyl)piperazine-1-carboxamide] | 0.0132 µM | 0.0034 µM
Cc1cnc2cccc([C@H](C)NC(=O)N3CCN(c4ccncc4F)C[C@H]3C)n12 [Example 66, (R)-4-(3-Fluoropyridin-4-yl)-2-methyl-N—((S)-1-(3-methylimidazo[1,2-a]pyridin-5-yl)ethyl)piperazine-1-carboxamide] | 1.27 µM | 0.297 µM
C[C@@H]1CN(c2ccncc2F)CCN1C(=O)N[C@H](C)c1cccc2c1OC(F)(F)O2 [Example 67, (R)—N—((R)-1-(2,2-Difluorobenzo[d][1,3]dioxol-4-yl)ethyl)-4-(3-fluoropyridin-4-yl)-2-methylpiperazine-1-carboxamide] | 0.243 µM | 0.0101 µM
C[C@@H]1CN(c2ccncc2F)CCN1C(=O)N[C@H](C)c1cccc2c1OCO2 [Example 68, (R)—N—((R)-1-(Benzo[d][1,3]dioxol-4-yl)ethyl)-4-(3-fluoropyridin-4-yl)-2-methylpiperazine-1-carboxamide] | 0.017 µM | 0.0042 µM
C[C@@H]1CN(c2ccncc2F)CCN1C(=O)N[C@H](C)c1cccc2nn(C)cc12 [Example 71, (R)-4-(3-Fluoropyridin-4-yl)-2-methyl-N—((R)-1-(2-methyl-2H-indazol-4-yl)ethyl)piperazine-1-carboxamide] | 0.0016 µM | 0.0031 µM
C[C@@H]1CN(c2ccncc2F)CCN1C(=O)OCc1cccc2nccn12 [Example 73, Imidazo[1,2-a]pyridin-5-ylmethyl (R)-4-(3-fluoropyridin-4-yl)-2-methylpiperazine-1-carboxylate] | 1.42 µM | 0.227 µM
C[C@@H]1CN(c2ccncc2F)CCN1C(=O)NCc1cccc2c1OC(F)(F)O2 [Example 74, (R)—N-((2,2-Difluorobenzo[d][1,3]dioxol-4-yl)methyl)-4-(3-fluoropyridin-4-yl)-2-methylpiperazine-1-carboxamide Hemiformate] | 0.978 µM | 0.0568 µM
C[C@@H]1CN(c2ccncc2F)CCN1C(=O)NCc1cccc2c1OCCO2 [Example 77, (R)—N-((2,3-Dihydrobenzo[b][1,4]dioxin-5-yl)methyl)-4-(3-fluoropyridin-4-yl)-2-methylpiperazine-1-carboxamide formate] | 0.191 µM | 0.0076 µM
C[C@@H]1CN(c2ccncc2F)CCN1C(=O)NCc1cccc2nn(C)cc12 [Example 78, (R)-4-(3-Fluoropyridin-4-yl)-2-methyl-N-((2-methyl-2H-indazol-4-yl)methyl)piperazine-1-carboxamide] | 0.0343 µM | 0.0042 µM
[2H]C([2H])([2H])Oc1cccc([C@H](NC(=O)N2CCN(c3ccncc3F)C[C@H]2C)C([2H])([2H])[2H])c1 [Example 81, (R)-4-(3-Fluoropyridin-4-yl)-N—((R)-1-(3-(methoxy-d3)phenyl)ethyl-2,2,2-d3)-2-methylpiperazine-1-carboxamide] | 0.0081 µM | 0.0037 µM
[2H]C([2H])([2H])Oc1cccc([C@@H](C)NC(=O)N2CCN(c3ccncc3F)C[C@H]2C)c1 [Example 82, (R)-4-(3-Fluoropyridin-4-yl)-N—((R)-1-(3-(methoxy-d3)phenyl)ethyl)-2-methylpiperazine-1-carboxamide] | 0.0091 µM | 0.0028 µM
COc1cccc(CN2C[C@@H]3CN(c4ccncc4F)CCN3C2=O)c1 [Example 86, (S)-7-(3-Fluoropyridin-4-yl)-2-(3-methoxybenzyl)hexahydroimidazo[1,5-a]pyrazin-3(2H)-one] | ≥ 5 µM | 3.21 µM
COc1cccc(CN2C[C@H]3CN(c4ccncc4F)CCN3C2=O)c1 [Example 87, (R)-7-(3-Fluoropyridin-4-yl)-2-(3-methoxybenzyl)hexahydroimidazo[1,5-a]pyrazin-3(2H)-one] | ≥ 5 µM | 1.49 µM
COc1cccc(CN2CC[C@H]3CN(c4ccncc4F)CCN3C2=O)c1 [Example 88, (S)-2-(3-Fluoropyridin-4-yl)-7-(3-methoxybenzyl)octahydro-6H-pyrazino[1,2-c]pyrimidin-6-one] | 3.8 µM | 0.362 µM
COc1cccc(CN2CC[C@@H]3CN(c4ccncc4F)CCN3C2=O)c1 [Example 89, (R)-2-(3-Fluoropyridin-4-yl)-7-(3-methoxybenzyl)octahydro-6H-pyrazino[1,2-c]pyrimidin-6-one] | 1.15 µM | 0.0551 µM
COc1cccc([C@@H](C)NC(=O)N2CCN(c3ccncc3F)[C@@H](C)C2)c1 [Example 90, (S)-4-(3-Fluoropyridin-4-yl)-N—((R)-1-(3-methoxyphenyl)ethyl)-3-methylpiperazine-1-carboxamide] | 0.062 µM | 0.0048 µM
